The results in this text go back to US6890517B2, “Inhalable formulation of a solution containing a tiotropium salt” (Boehringer Ingelheim Pharma KG, priority 2000, dated 2005).

The nature of the data set: stability of budesonide dissolved in water/ethanol at low pH. Type of data set: physicochemical. To be noted: pH of 3.5; dissolved in a mixture of water and ethanol. As for the experimental part: In the case of steroids, these are preferably used in suspended form, especially fluticasone. This is particularly true if the solvent used is only water without ethanol. If ethanol is added, the steroid may also be formulated as a solution.

On to `CCCC1O[C@@H]2C[C@H]3[C@@H]4CCC5=CC(=O)C=C[C@]5(C)[C@H]4[C@@H](O)C[C@]3(C)[C@]2(C(=O)CO)O1` (stereo partly shown) [budesonide], for which the stability in solution result is “sufficiently stable”.
